In paper PMC7034089, “Synthesis of novel, DNA binding heterocyclic dehydroabietylamine derivatives as potential antiproliferative and apoptosis-inducing agents” (Drug Delivery, 2020) one finds IC50, pKb and melting point data, which are given here for twelve compounds.

In one data set the test system is Hela (cervix) cells. Nature of the data set: MTT antiproliferative assay, Hela cells. The format is cell-based. Particulars: Homo sapiens, 36 h incubation, read-out: IC50 ± SE, Hela. Here is the method:
(§1) Compounds L^1−L^10 were evaluated against human cancer cell lines Hela, HepG2, MCF-7, A549, and the normal cell HUVEC with the antiproliferative activities in vitro by MTT assay, and results are summarized as IC50 values in Table 3.
(§2) Hela, HepG2, MCF-7, A549, and HUVEC cells were used in the antiproliferative activity assay. Cancer cells were seeded in 96-well plates with a density of 10^4 cells per well, after 12 hours of incubation at 5% CO2 and 37 °C, the culture media was removed and cells were incubated with L^1−L^10 dissolved in DMEM at different concentrations (each concentration repeated 3 times) for 36 h at 5% CO2 and 37 °C. Subsequently, removed the culture media and the new culture medium containing MTT (1 mg/mL) was added, followed by incubating for 4 h to allow the formation of formazan dye (Xia et al., [2015]; Zhao et al., [2018]). After removing the medium, 200 μL DMSO was added to each well to dissolve the formazan crystals. Absorbance was measured at 595 nm in a microplate photometer. Cell viability values were determined (at least three times) according to the following formulae: cell viability (%) = the absorbance of experimental group/the absorbance of blank control group ×100%.
(Tetrazolium dyes change colour on reduction, which living cells bring about.)

The next data set concerns HepG2 (liver) cells. Put plainly: MTT antiproliferative assay, HepG2 cells. The format is cell-based. Particulars: Homo sapiens, 36 h incubation, read-out: IC50 ± SE, HepG2. Here is the method: as §2
For a further data set, the system named is MCF-7 (breast) cells. Nature of the data set: MTT antiproliferative assay, MCF-7 cells. The format is cell-based. Particulars: Homo sapiens, MCF7, 36 h incubation, read-out: IC50 ± SE, MCF-7. Here is the method:
as §1, §2

Another data set has as its system A549 (lung) cells. Nature of the data set: MTT antiproliferative assay, A549 cells. Type of data set: cell-based. Conditions: Homo sapiens, 36 h incubation, read-out: IC50 ± SE, A549. The method, then: as §1, §2
Data set [1] has as its system HUVEC (umbilical vein) cells. Nature of the data set: MTT cytotoxicity assay, normal HUVEC cells. Type of data set: cell-based. Conditions: Homo sapiens, 36 h, 36 h incubation, read-out: IC50 ± SE, HUVEC (toxicity, normal cell). Here is the method:
as §1, §2

A further data set is described as follows: pKb. The format is physicochemical.

What is called IC50 is the midpoint of a concentration-inhibition curve. As a reminder, the pKb is the negative decadic logarithm of the Kb, by convention in mol/L. A lower pKb goes with a high Kb. A word on the melting point: it is the temperature of the solid-liquid transition.

With `COc1cccc2c1C(=O)c1c(O)c3c(c(O)c1C2=O)C[C@@](O)(C(=O)CO)C[C@@H]3O[C@H]1C[C@H](N)[C@H](O)[C@H](C)O1` [DOX, Doxorubicin, reference compound], the 50% inhibitory concentration (IC50) in the data set on Hela (cervix) cells was 3.55 ± 0.17 µM; in the data set on HepG2 (liver) cells, 1.2 ± 0.04 µM; with MCF-7 (breast) cells, 14 ± 1.03 µM; in the data set with A549 (lung) cells, 3.35 ± 0.69 µM; in data set [1], 4.4 ± 0.55 µM. The compound further yielded a pKb in “pKb” of 5.80.

Turning to `CC(C)c1ccc2c(c1)CCC1C(C)(CN)CCCC21C` (stereo not shown) [L^0, dehydroabietylamine], the IC50 in the data set with Hela (cervix) cells is 2.02 ± 0.02 µM; in the data set on HepG2 (liver) cells, 2.56 ± 0.04 µM; in the data set on MCF-7 (breast) cells it was 19.4 ± 0.39 µM; with A549 (lung) cells, 5.02 ± 0.19 µM; in data set [1], 1.27 ± 0.03 µM.

With `CC(C)c1ccc2c(c1)CCC1C(C)(CN=Cc3cccs3)CCCC21C` (stereo not shown) [L^1, 2-thiophene-dehydroabietylamine-Schiff-base], the IC50 came to 9.02 ± 0.25 µM in the data set on Hela (cervix) cells; 0.66 ± 0.02 µM with HepG2 (liver) cells; 5.33 ± 0.16 µM with MCF-7 (breast) cells; 2.11 ± 0.06 µM with A549 (lung) cells; 5.98 µM in data set [1].

With `Cc1ccsc1C=NCC1(C)CCCC2(C)c3ccc(C(C)C)cc3CCC12` (stereo not shown) [L^2, 3-methyl-2-thiophene-dehydroabietylamine-Schiff-base], the melting point lay within 38.2 to 39.1 °C. Further, in the data set on Hela (cervix) cells, the IC50 turned out to be 59.52 ± 0.27 µM. Also, the IC50 with HepG2 (liver) cells came out at 28.78 ± 0.19 µM. In addition, the IC50 in the data set with MCF-7 (breast) cells amounted to 14.5 ± 2.48 µM. Besides, the IC50 with A549 (lung) cells is above 100 µM. The IC50 in data set [1] came out at 34 ± 1.57 µM.

`CC(C)c1ccc2c(c1)CCC1C(C)(CN=Cc3ccc(Br)s3)CCCC21C` (stereo not shown) [L^3, 5-bromine-2-thiophene-dehydroabietylamine-Schiff-base]: the 50% inhibitory concentration (IC50) was found to be 54.38 ± 0.38 µM with Hela (cervix) cells; 1.63 ± 0.39 µM with HepG2 (liver) cells; 2.65 ± 0.07 µM in the data set on MCF-7 (breast) cells; 95.5 ± 2.48 µM in the data set with A549 (lung) cells; 16.6 ± 1.08 µM in data set [1].

In the case of `CC(C)c1ccc2c(c1)CCC1C(C)(CNC(=O)c3cccs3)CCCC21C` (stereo not shown) [L^4, 2–thiophene-acyl-dehydroabietylamine], the IC50 was 14.8 ± 0.22 µM in the data set with Hela (cervix) cells; 46 ± 1.13 µM in the data set on HepG2 (liver) cells; 8.21 ± 0.65 µM in the data set with MCF-7 (breast) cells; above 100 µM with A549 (lung) cells; above 100 µM in data set [1].

`Cc1ccc(C(=O)NCC2(C)CCCC3(C)c4ccc(C(C)C)cc4CCC23)s1` (stereo not shown) [L^5, 5-methyl-2-thiophene-acyl-dehydroabietylamine] returned a melting point of 169.4 to 171.7 °C. For the same compound, the half-maximal inhibitory concentration (IC50) in the data set with Hela (cervix) cells was above 100 µM. Also, in the data set on HepG2 (liver) cells, the IC50 stood at 53.1 ± 1.95 µM. Moreover, in the data set with MCF-7 (breast) cells, the half-inhibitory concentration (IC50) came to 8.27 ± 0.21 µM. The IC50 with A549 (lung) cells is above 100 µM. Also, the IC50 in data set [1] is above 100 µM.

Take `CC(C)c1ccc2c(c1)CCC1C(C)(CNC(=O)c3ccc(Br)s3)CCCC21C` (stereo not shown) [L^6, 5-bromine-2-thiophene-acyl-dehydroabietylamine]: the melting point was in the range of 170.7 to 173.2 °C. In addition, the IC50 in the data set on Hela (cervix) cells is above 100 µM. The IC50 in the data set on HepG2 (liver) cells came to 51.4 ± 2 µM. Further, the IC50 in the data set with MCF-7 (breast) cells amounted to 55.6 ± 2.56 µM. Further, in the data set with A549 (lung) cells, the IC50 came to 94.4 ± 2.56 µM. For the same compound, the IC50 in data set [1] was determined as 75.5 ± 12.4 µM.

The compound `CC(C)c1ccc2c(c1)CCC1C(C)(CNC(=O)c3cnccn3)CCCC21C` (stereo not shown) [L^7, 2-pyrazine-acyl-dehydroabietylamine] returned a melting point of 159.8 to 162.3 °C. For the same compound, the half-maximal inhibitory concentration (IC50) in the data set with Hela (cervix) cells stood at 43.5 ± 1.34 µM. For the same compound, the IC50 in the data set with HepG2 (liver) cells came out at 24 ± 1.33 µM. Also, the IC50 in the data set with MCF-7 (breast) cells worked out at 11.8 ± 0.54 µM. Besides, the IC50 in the data set on A549 (lung) cells amounted to 83.6 ± 15.7 µM. In addition, in data set [1], the IC50 was determined as 66.8 ± 2.6 µM.

With `COc1cnc(C(=O)NCC2(C)CCCC3(C)c4ccc(C(C)C)cc4CCC23)cn1` (stereo not shown) [L^8, 5-methoxyl-2-pyrazine-acyl-dehydroabietylamine], the IC50 in the data set on Hela (cervix) cells turned out to be 20.2 ± 0.89 µM; in the data set with HepG2 (liver) cells, 17.06 ± 0.07 µM; in the data set with MCF-7 (breast) cells, 8.81 ± 0.54 µM; in the data set with A549 (lung) cells it was 36 ± 2.18 µM; in data set [1] it was 95.1 ± 0.97 µM.

`Cc1cnc(C(=O)NCC2(C)CCCC3(C)c4ccc(C(C)C)cc4CCC23)cn1` (stereo not shown) [L^9, 5–methyl-2-pyrazine-acyl-dehydroabietylamine] gave a melting point of 130.7 to 133.4 °C. For the same compound, the IC50 in the data set on Hela (cervix) cells is 52.5 ± 0.54 µM. Also, in the data set on HepG2 (liver) cells, the IC50 came out at 44.9 ± 0.75 µM. In the data set with MCF-7 (breast) cells, the IC50 is 6.66 ± 0.24 µM. Besides, the 50% inhibitory concentration (IC50) in the data set on A549 (lung) cells is above 100 µM. In data set [1], the IC50 came to 18.9 ± 1.72 µM.

`CC(C)c1ccc2c(c1)CCC1C(C)(CNC(=O)c3cnc(Cl)cn3)CCCC21C` (stereo not shown) [L^10, 5-chloro-2-pyrazine-acyl-dehydroabietylamine] displayed a melting point of 152.4 to 154.5 °C. Besides, the IC50 in the data set with Hela (cervix) cells is above 100 µM. The IC50 in the data set on HepG2 (liver) cells worked out at 56.1 ± 6.11 µM. The IC50 with MCF-7 (breast) cells was determined as 88.8 ± 3.46 µM. Also, the IC50 with A549 (lung) cells amounted to 39.6 ± 1.74 µM. In data set [1], the concentration for half-maximal inhibition (IC50) was determined as 29.4 ± 2.35 µM.
